Assay results from patent US20140031217A1, “HERBICIDAL COMPOSITIONS COMPRISING 4-AMINO-3-CHLORO-5-FLUORO-6-(4-CHLORO-2-FLUORO-3-METHOXYPHENYL)PYRIDINE-2-CARBOXYLIC ACID OR A DERIVATIVE THEREOF AND AUXIN TRANSPORT INHIBITORS” (DOW AGROSCIENCES LLC, priority 2012, published 2014).

How the values were obtained:
IPOHE = assay: Postemergence foliar-applied greenhouse weed control, IPOHE; type: in vivo, Ipomoea hederacea Jacq.
Source text: Seeds or nutlets of the desired test plant species were planted in a soil matrix prepared by mixing a loam or sandy loam soil (e.g., 28.6 percent silt, 18.8 percent clay, and 52.6 percent sand, with a pH of about 5.8 and an organic matter content of about 1.8 percent) and calcareous grit in an 80 to 20 ratio. The soil matrix was contained in plastic pots with a volume of 1 quart and a surface area of 83.6 square centimeters (cm^2). When required to ensure good germination and healthy plants, a fungicide treatment and/or other chemical or physical treatment was applied. The plants were grown for 8-22 days in a greenhouse with an approximate 14 h photoperiod which was maintained at about 29° C. during the day and 26° C. during the night. Nutrients (Peters Excel® 15-5-15 5-Ca 2-Mg and iron chelate) were applied in the irrigation solution as needed and water was added on a regular basis. Supplemental lighting was provided with overhead metal halide 1000-Watt lamps as necessary. The plants were employed for testing when they reached the first through fourth true leaf stage.
Treatments consisted of the acid or esters of 4-amino-3-chloro-5-fluoro-6-(4-chloro-2-fluoro-3-methoxy-phenyl) pyridine-2-carboxylic acid (Compound A), each formulated as an SC (suspension concentrate), and various herbicidal components alone and in combination. Forms of compound A were applied on an acid equivalent basis.
Other herbicidal components were applied on an active ingredient basis and included auxin transport inhibiting (ATI) herbicides chlorflurenol (technical material), chlorflurenol-methyl (technical material), diflufenzopyr (technical material), diflufenzopyr sodium (technical material), flurenol-methyl (technical material) and naptalam (technical material).
Treatment requirements were calculated based upon the rates being tested, the concentration of active ingredient or acid equivalent in the formulation, and a 12 mL application volume at a rate of 187 L/ha.
For treatments comprised of formulated and technical compounds, weighed amounts of the technical materials were placed individually in 25 mL glass vials and dissolved in a volume of 97:3 v/v acetone/DMSO to obtain 12× stock solutions, and measured amounts of the formulated compounds were placed individually in 25 mL glass vials and diluted in a volume of 1.5% (v/v) crop oil concentrate or water to obtain 12× stock solutions. […] Application solutions were prepared by adding an appropriate amount of each stock solution (e.g., 1 mL) and diluted to the appropriate final concentrations with the addition of an appropriate amount of an aqueous mixture of 1.5% (v/v) crop oil concentrate so that the final spray solutions contained 1.25% (v/v) crop oil concentrate. When required, additional water and/or 97:3 v/v acetone/DMSO was added to individual application solutions so that the final acetone and DMSO concentrations of the application solutions being compared were 8.1% and 0.25%, respectively.
All stock solutions and applications solutions were visually inspected for compound compatibility prior to application. Spray solutions were applied to the plant material with an overhead Mandel track sprayer equipped with an 8002E nozzle calibrated to deliver 187 L/ha over an application area of 0.503 m^2 at a spray height of 18 to 20 inches (46 to 50 cm) above average plant canopy height. Control plants were sprayed in the same manner with the solvent blank.
The treated plants and control plants were placed in a greenhouse as described above and watered by sub-irrigation to prevent wash-off of the test compounds. After approximately 3 weeks, the condition of the test plants as compared with that of the untreated plants was determined visually and scored on a scale of 0 to 100 percent where 0 corresponds to no injury or growth inhibition and 100 corresponds to complete kill. […]

ECHOR = assay: In-water applied (paddy) greenhouse weed control, ECHOR; type: in vivo, Echinochloa oryzoides (Ard.) Fritsch
Experimental: Weed seeds or nutlets of the desired test plant species were planted in puddled soil (mud) prepared by mixing a shredded, non-sterilized mineral soil (50.5 percent silt, 25.5 percent clay, and 24 percent sand, with a pH of about 7.6 and an organic matter content of about 2.9 percent) and water at a 1:1 volumetric ratio. The prepared mud was dispensed in 365 mL aliquots into 16-ounce (oz.) non-perforated plastic pots with a surface area of 86.59 square centimeters (cm^2) leaving a headspace of 3 centimeters (cm) in each pot. Mud was allowed to dry overnight prior to planting or transplanting. Rice seeds were planted in Sun Gro MetroMix® 306 planting mixture, which typically has a pH of 6.0 to 6.8 and an organic matter content of about 30 percent, in plastic plug trays. Seedlings at the second or third leaf stage of growth were transplanted into 840 mL of mud contained in 32-oz. non-perforated plastic pots with a surface area of 86.59 cm^2 4 days prior to herbicide application. The paddy was created by filling the headspace of the pots with 2.5 to 3 cm of water. When required to ensure good germination and healthy plants, a fungicide treatment and/or other chemical or physical treatment was applied. The plants were grown for 4-22 days in a greenhouse with an approximate 14 h photoperiod which was maintained at about 29′C during the day and 26° C. during the night. Nutrients were added as Osmocote® (19:6:12, N:P:K+minor nutrients) at 2 g per 16-oz. pot and 4 g per 960-mL 32-oz. pot. Water was added on a regular basis to maintain the paddy flood, and supplemental lighting was provided with overhead metal halide 1000-Watt lamps as necessary. The plants were employed for testing when they reached the second or third true leaf stage.
Treatments consisted of the acid or esters of 4-amino-3-chloro-5-fluoro-6-(4-chloro-2-fluoro-3-methoxy-phenyl)pyridine-2-carboxylic acid (compound A) each formulated as an SC and various herbicidal components alone and in combination. Forms of compound A were applied on an acid equivalent basis.
Other herbicidal components were applied on an active ingredient basis and included auxin transport inhibiting (ATI) herbicides chlorflurenol-methyl (technical material), chlorflurenol (technical material), diflufenzopyr (technical material), dilfufenzopyr sodium (technical material), flurenol-methyl (technical material,) and naptalam (technical material).
Treatment requirements for each compound or herbicidal component were calculated based upon the rates being tested, the concentration of active ingredient or acid equivalent in the formulation, an application volume of 2 mL per component per pot, and an application area of 86.59 cm^2 per pot.
For formulated compounds, a measured amount was placed in an individual 100 or 200 mL glass vial and was dissolved in a volume of 1.25% (v/v) Agri-Dex® crop oil concentrate to obtain application solutions.
For technical grade compounds, a weighed amount was placed in an individual 100 to 200 mL glass vial and was dissolved in a volume of acetone to obtain concentrated stock solutions. […] The concentrated stock solutions obtained were diluted with an equivalent volume of an aqueous mixture containing 2.5% (v/v) crop oil concentrate so that the final application solutions contained 1.25% (v/v) crop oil concentrate.
Applications were made by injecting with a pipetter appropriate amounts of the application solutions, individually and sequentially, into the aqueous layer of the paddy. Control plants were treated in the same manner with the solvent blank. Applications were made so that all treated plant material received the same concentrations of acetone and crop oil concentrate.
The treated plants and control plants were placed in a greenhouse as described above and water was added as needed to maintain a paddy flood. […]

Row | SMILES | Visual Weed Control (%) Obs (IPOHE; 20 DAA, 4.38 gae/ha) [%] | Visual Weed Control (%) Obs (IPOHE; 20 DAA, 8.75 gae/ha) [%] | Visual Weed Control (%) Obs (IPOHE; 20 DAA, 17.5 gae/ha) [%] | Visual Weed Control (%) Obs (ECHOR; 20 DAA, 8.75 gae/ha) [%] | Visual Weed Control (%) Obs (ECHOR; 20 DAA, 17.5 gae/ha) [%] | Visual Weed Control (%) Obs (ECHOR; 20 DAA, 35 gae/ha) [%] | Visual Weed Control (%) Obs (ECHOR; 22 DAA, 8.75 gae/ha) [%] | Visual Weed Control (%) Obs (ECHOR; 22 DAA, 17.5 gae/ha) [%] | Visual Weed Control (%) Obs (ECHOR; 22 DAA, 35 gae/ha) [%] | Visual Weed Control (%) Obs (IPOHE; 21 DAA, 4.38 gae/ha) [%] | Visual Weed Control (%) Obs (IPOHE; 21 DAA, 8.75 gae/ha) [%] | Visual Weed Control (%) Obs (IPOHE; 21 DAA, 17.5 gae/ha) [%] | Visual Weed Control (%) Obs (IPOHE; 22 DAA, 8 gae/ha) [%] | Visual Weed Control (%) Obs (IPOHE; 22 DAA, 16 gae/ha) [%] | Visual Weed Control (%) Obs (IPOHE; 22 DAA, 32 gae/ha) [%] | Visual Weed Control (%) Obs (ECHOR; 19 DAA, 32 gae/ha) [%] | Visual Weed Control (%) Obs (ECHOR; 20 DAA, 4.38 gae/ha) [%]
1 | COc1c(Cl)ccc(-c2nc(C(=O)O)c(Cl)c(N)c2F)c1F [Compound A Acid, 4-amino-3-chloro-6-(4-chloro-2-fluoro-3-methoxyphenyl)-5-fluoropyridine-2-carboxylic acid] | 20 | 20 | 50 | 10 | 15 | 25 | 0 | 20 | 20 |  |  |  |  |  |  |  | 
2 | COc1c(Cl)ccc(-c2nc(C(=O)OCc3ccccc3)c(Cl)c(N)c2F)c1F [Compound A Benzyl Ester] | 10 | 15 |  | 15 |  |  |  |  |  | 10 | 10 | 25 | 0 | 25 | 50 | 25 | 10
